Source: patent publication US11007208B2 (priority 2015, dated 2021)
Where two headings read alike, the source gives them in different places.

Key:
Junin virus [1] = test: microbe, parasite or virus in culture; format: cell-based; conditions: Mammarenavirus juninense, Vero; for EC90: read-out: EC90 Junin Vero
in vitro [2] = conditions: human
in vitro [3] = conditions: human; remark: listed apart in the source
SARS-CoV [4] = test: microbe, parasite or virus in culture; format: cell-based; conditions: Severe acute respiratory syndrome coronavirus, HAE, read-out: EC50 SARS (HAE)
MERS-CoV [5] = test: microbe, parasite or virus in culture; format: cell-based; conditions: Middle East respiratory syndrome-related coronavirus, HAE, read-out: EC50 MERS (HAE)
Lassa virus = test: microbe, parasite or virus in culture; format: cell-based; conditions: Mammarenavirus lassaense, HeLa; for EC50: read-out: EC50 HCS Lassa HeLa; for EC90: read-out: EC90 HCS Lassa HeLa
Junin virus [6] = test: microbe, parasite or virus in culture; format: cell-based; conditions: Mammarenavirus juninense, HeLa; for EC50: read-out: EC50 HCS Junin HeLa; for EC90: read-out: EC90 HCS Junin HeLa
[7] = system: MERS-CoV (Strain Jordan N3); test: microbe, parasite or virus in culture; format: cell-based; conditions: Middle East respiratory syndrome-related coronavirus, Vero, read-out: EC50 MERS-CoV Vero
MERS-CoV [8] = test: microbe, parasite or virus in culture; format: cell-based; conditions: Middle East respiratory syndrome-related coronavirus, Calu-3 2B4, read-out: EC50 MERS (Calu-3)
[9] = mouse, in vivo
[10] = system: MERS-CoV isolate HCoV-EMC/2012; set-up: species or system rhesus monkeys; conditions: rhesus monkey, in vivo
SARS-CoV [11] = system: SARS-CoV; set-up: species or system mice; conditions: mouse, in vivo
SARS-CoV [12] = test: microbe, parasite or virus in culture; format: cell-based; conditions: Severe acute respiratory syndrome coronavirus, Calu-3 2B4, read-out: EC50 SARS (Calu-3)

Row | SMILES | EC90 (Junin virus [1]) [µM] | CC50 (in vitro [2]) [µM] | CC50 (in vitro [3]) [µM] | EC50 (SARS-CoV [4]) [µM] | EC50 (MERS-CoV [5]) [µM] | EC50 (Lassa virus) [µM] | EC90 (Lassa virus) [µM] | EC50 (Junin virus [6]) [µM] | EC90 (Junin virus [6]) [µM] | EC50 [7] [µM] | other results
1 | N#C[C@@]1(c2ccc3c(N)ncnn23)O[C@H](CO)[C@@H](O)[C@H]1O [Compound 1, (2R,3R, 4S, 5R)-2-(4-aminopyrrolo[1,2-f][1,2,4]triazin-7-yl)-3,4-dihydroxy-5-(hydroxymethyl)tetrahydrofuran-2-carbonitrile] | > 47 | > 100 | > 100 | 0.22 | 0.46 | – | – | – | – | – | –
2 | CCC(CC)COC(=O)[C@H](C)NP(=O)(OC[C@H]1O[C@@](C#N)(c2ccc3c(N)ncnn23)[C@H](O)[C@@H]1O)Oc1ccccc1 (stereo partly drawn) [Compound 9, (2S)-2-ethylbutyl 2-((((2R,3S,4R,5R)-5-(4-aminopyrrolo[1,2-f][1,2,4]triazin-7-yl)-5-cyano-3,4-dihydroxytetrahydrofuran-2-yl)methoxy)(phenoxy)phosphorylamino)propanoate] | > 47 | – | – | – | – | 2 | 4.21 | 0.49 | 1.25 | 0.46 | EC50 (Junin virus [1]; read-out: EC50 Junin Vero): > 47 µM
3 | CCC(CC)COC(=O)[C@H](C)N[P@](=O)(OC[C@H]1O[C@@](C#N)(c2ccc3c(N)ncnn23)[C@H](O)[C@@H]1O)Oc1ccccc1 [Compound 32, (S)-2-ethylbutyl 2-(((S)-(((2R,3S,4R,5R)-5-(4-aminopyrrolo[2,1-f][1,2,4]triazin-7-yl)-5-cyano-3,4-dihydroxytetrahydrofuran-2-yl)methoxy)(phenoxy)phosphoryl)amino)propanoate] | – | > 10 | > 10 | 0.069 | 0.074 | 1.65 | 3.31 | 0.47 | 1.26 | 0.58 | EC50 (MERS-CoV [8]): 0.03 µM; Plasma stability [9]: improved the plasma stability; Respiration rates [10]: tended to be higher at Day 6 in vehicle-treated animals; Viral RNA in the liver, spleen, kidney and bladder tissue [10]: below the limit of detection; Viral RNA in the mediastinal lymph node [10]: detected in all animals; Viral RNA in the respiratory tract [10]: significantly reduced; Viral load in nose swabs and throat swabs [10]: no difference in viral load; Body weight and body temperature during the course of the infection ([10]; iv, 10 mg/kg): did not change appreciably; Cumulative clinical scores ([10]; iv, 10 mg/kg): notably higher in vehicle-treated animals; Disease symptoms ([10]; iv, 10 mg/kg): less pronounced; Changes in body weight post infection (SARS-CoV [11]): no evidence of weight loss; Expiration Time and End Expiratory Pause (whole body plethysmography) (SARS-CoV [11]): reduced; Infectious virus in lung tissue by plaque assay (SARS-CoV [11]): significantly decreased; Penh values (whole body plethysmography) (SARS-CoV [11]): lower compared to vehicle-treated animals; EC50 (SARS-CoV [12]): 0.01 µM
